In one experiment the target is α1-adrenoceptor. As to conditions: rat cerebral cortex, [3H]-prazosin; ref Pytka et al. (2015); read-out: Adrenergic receptors Ki α1; cited from earlier work.
Another experiment concerns the target T1, α1A-adrenoceptors (Rattus norvegicus, UniProt P43140).
T1 construct: the middle part of the ventral caudal artery was removed; from tissue; host or cells: isolated rat tail (ventral caudal) artery rings
T1 sequence (P43140 1-466): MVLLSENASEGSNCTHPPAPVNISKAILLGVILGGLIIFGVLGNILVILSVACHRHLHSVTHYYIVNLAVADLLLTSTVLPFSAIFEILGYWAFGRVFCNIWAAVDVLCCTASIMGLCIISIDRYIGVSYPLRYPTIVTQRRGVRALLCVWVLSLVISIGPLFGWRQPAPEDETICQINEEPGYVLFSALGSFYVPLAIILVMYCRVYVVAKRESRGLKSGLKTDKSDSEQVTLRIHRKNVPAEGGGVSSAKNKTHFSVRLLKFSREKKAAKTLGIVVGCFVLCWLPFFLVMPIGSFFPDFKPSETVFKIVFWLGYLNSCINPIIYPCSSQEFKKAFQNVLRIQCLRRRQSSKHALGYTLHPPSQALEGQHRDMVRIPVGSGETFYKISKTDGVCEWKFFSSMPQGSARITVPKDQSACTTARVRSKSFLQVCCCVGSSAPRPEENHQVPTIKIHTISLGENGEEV
As to the kind of experiment: Functional bioassay, isolated rat tail artery, noradrenaline contraction. The experiment is classed as biochemical. The settings on record: noradrenaline as agonist; for Kb: read-out: pA2 ± S.E.M., α1A (converted). On the procedure:
(§1) The isolated artery, cut into ~4 mm long rings, was then horizontally put up between two stainless steel hooks (diameter 0.15 mm). One hook was fastened to the bottom of the chamber and the other to an isometric FDT10-A force displacement transducer (DMT Model 750TOBS, Denmark), linked with Powerlab 4/26 analyzer (ADInstruments), and processed by LabChart 7 software. […] The initial optimal tissues tension was set at 0.75 g. Chloroethylclonidine (3 μM) as the preferential α1B-adrenoreceptor alkylating agent was used during incubation and after 30 min it was completely washed off. Through 100 min of equilibration tissues were stimulated with noradrenaline (1 μM) four times with washing out until the contractile response become constant. Two cumulative concentration-response curves to noradrenaline, at an interval of 60 min, were established on each arterial ring both in the presence and absence of antagonist. The incubation with antagonists went on for 30 min. The experiments were carried out in the constant presence of yohimbine (0.1 μM) and propranolol (1 μM) to block α2- and β-adrenoceptors, respectively in order to minimize the involvement of these adrenoceptors in the response to noradrenaline.
Data are means ± S.E.M. of at least 4 separate experiments. To establish Hill slopes for the agonist concentration–response curves and calculate EC50 values, curves were fitted to all the data by non-linear regression. The EC50 value in the presence and absence of antagonists was used to ascertain the concentration ratio (CR). Schild analysis was performed.

Experiment [1] deals with α1-adrenergic receptor subtypes. As to the kind of experiment: Comparison of functional affinities across α1-adrenoceptor subtypes (rat tail artery, mouse spleen, rat aorta). The experiment is classed as biochemical. As to conditions: from difference in pA2 values. How it is done:
as §1
The influence on α1B-adrenoceptors was evaluated using the isolated mouse spleen. The spleen was removed from male mice right after killing the anesthetized animal by cervical dislocation. […]

SMILES strings stand for the structures. Where a name gives a salt, the structure may show the parent alone.

Consider `COc1ccccc1N1CCN(CCOCCOc2c(C)cccc2C)CC1.Cl` [HBK-14, 1-[(2,6-dimethylphenoxy)ethoxyethyl]-4-(2-methoxyphenyl)piperazine hydrochloride], for which, on α1-adrenoceptor, the Ki is 22.8 nM. In addition, on α1A-adrenoceptors, the “Schild slope ± S.E.M., α1A” value is 0.97 ± 0.15 and the Kb was 10.2 nM.
As for `COc1ccccc1N1CCN(CCOCCOc2c(C)cccc2Cl)CC1.Cl` [HBK-15, 1-[(2-chloro-6-methylphenoxy)ethoxyethyl]-4-(2-methoxyphenyl)piperazine hydrochloride], at α1-adrenoceptor, the Ki was 13.1 nM. Also, on α1A-adrenoceptors, the “Schild slope ± S.E.M., α1A” value is on record as 1.01 ± 0.18 and the Kb is 19.5 nM.
In the case of `COc1ccccc1N1CCN(CCCOc2cc(C)ccc2Cl)CC1` [HBK-16, 1N-[3-(2-chloro-5-methylphenoxy)propyl]-4N-(2-methoxyphenyl)piperazine hydrochloride], on α1A-adrenoceptors, the “Schild slope ± S.E.M., α1A” value was determined as 1.06 ± 0.08 and the Kb is 1.78 nM.
Taken in the same sequence, the figures for `COc1ccccc1N1CCN(CCCOc2c(C)cc(C)cc2C)CC1` [HBK-18, 1N-[3-(2,4,6-trimethylphenoxy)propyl]-4N-(2-methoxyphenyl)piperazine hydrochloride] were 1.10 ± 0.06 and 3.24 nM.
For `COc1ccccc1N1CCN(CCCOc2cc(C)cc(C)c2C)CC1` [HBK-19, 1N-[3-(2,3,5-trimethylphenoxy)propyl]-4N-(2-methoxyphenyl)piperazine hydrochloride], at α1A-adrenoceptors, the “Schild slope ± S.E.M., α1A” value is reported as 0.96 ± 0.05 and the Kb is 1.23 nM. In addition, in experiment [1], the “α1A-adrenoceptor blockade relative to α1B subtype (fold stronger)” value is on record as “around seven-fold”.

These data come from article PMC4971072, “Chemically Homogenous Compounds with Antagonistic Properties at All α1-Adrenoceptor Subtypes but not β1-Adrenoceptor Attenuate Adrenaline-Induced Arrhythmia in Rats” (Frontiers in Pharmacology, 2016).
